Legend:
[1] = target: T1, M71 odorant receptor (Mus musculus, UniProt Q60893); experiment: patch clamp of dendritic knobs of M71- or M71::GFP-expressing olfactory sensory neurons, dose response; assay type: cell-based; parameters: gene Or8a1; full-length M71 and M71::GFP C-terminal fusion expressed in olfactory sensory neurons
T1 sequence (Q60893 1-309): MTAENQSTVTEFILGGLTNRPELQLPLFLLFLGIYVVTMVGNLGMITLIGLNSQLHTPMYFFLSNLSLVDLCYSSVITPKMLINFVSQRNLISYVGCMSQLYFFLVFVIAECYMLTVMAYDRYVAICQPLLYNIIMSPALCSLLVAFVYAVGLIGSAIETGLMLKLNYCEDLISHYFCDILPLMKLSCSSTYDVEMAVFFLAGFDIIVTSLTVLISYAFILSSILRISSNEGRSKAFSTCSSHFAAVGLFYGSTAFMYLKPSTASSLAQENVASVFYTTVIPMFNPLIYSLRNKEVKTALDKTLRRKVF

[2] = target: T1, M71 odorant receptor; parameters: gene Or8a1

SMILES	EC50 [1] [nM]	patch clamp of dendritic knobs of olfactory sensory neurons, peak current at 10 [2]
CC(=O)c1ccccc1N [2aACP, 2-amino acetophenone]	650 ± 80	–
CCc1occc(=O)c1O [eMLT, ethyl maltol]	–	olfactory neurons expressing either M71 or M71::GFP are activated by M71 specific ligands

— paper PMC4626375, “In Vitro Mutational and Bioinformatics Analysis of the M71 Odorant Receptor and Its Superfamily” (PLoS ONE, 2015)
